Data as given in patent publication US12496348B2, “Small molecule target bromo/acetyl proteins and uses thereof” (DANA-FARBER CANCER INSTITUTE, INC., priority 2019, dated 2025).
Where two headings read alike, the source gives them in different places.

Legend:
[1] = tested on: Kelly Neuroblastoma cells; test: ATPlite Luminescence viability assay, Kelly neuroblastoma cells, 72 h; format: cell-based; conditions: for IC50 values (range in words): Kelly Neuroblastoma cell proliferation; for IC50: ATPlite
Description: Kelly Neuroblastoma cells were seeded at 1,000 cells per well in 384 well, white plates and were treated in a dose-dependent manner for 72 h.

EP300 = EP300 (Homo sapiens (Human), UniProt Q09472); test: Western blot for EP300 degradation in Kelly NB cells; format: cell-based; conditions: 24 hours
EP300, sequence (Q09472 whole entry): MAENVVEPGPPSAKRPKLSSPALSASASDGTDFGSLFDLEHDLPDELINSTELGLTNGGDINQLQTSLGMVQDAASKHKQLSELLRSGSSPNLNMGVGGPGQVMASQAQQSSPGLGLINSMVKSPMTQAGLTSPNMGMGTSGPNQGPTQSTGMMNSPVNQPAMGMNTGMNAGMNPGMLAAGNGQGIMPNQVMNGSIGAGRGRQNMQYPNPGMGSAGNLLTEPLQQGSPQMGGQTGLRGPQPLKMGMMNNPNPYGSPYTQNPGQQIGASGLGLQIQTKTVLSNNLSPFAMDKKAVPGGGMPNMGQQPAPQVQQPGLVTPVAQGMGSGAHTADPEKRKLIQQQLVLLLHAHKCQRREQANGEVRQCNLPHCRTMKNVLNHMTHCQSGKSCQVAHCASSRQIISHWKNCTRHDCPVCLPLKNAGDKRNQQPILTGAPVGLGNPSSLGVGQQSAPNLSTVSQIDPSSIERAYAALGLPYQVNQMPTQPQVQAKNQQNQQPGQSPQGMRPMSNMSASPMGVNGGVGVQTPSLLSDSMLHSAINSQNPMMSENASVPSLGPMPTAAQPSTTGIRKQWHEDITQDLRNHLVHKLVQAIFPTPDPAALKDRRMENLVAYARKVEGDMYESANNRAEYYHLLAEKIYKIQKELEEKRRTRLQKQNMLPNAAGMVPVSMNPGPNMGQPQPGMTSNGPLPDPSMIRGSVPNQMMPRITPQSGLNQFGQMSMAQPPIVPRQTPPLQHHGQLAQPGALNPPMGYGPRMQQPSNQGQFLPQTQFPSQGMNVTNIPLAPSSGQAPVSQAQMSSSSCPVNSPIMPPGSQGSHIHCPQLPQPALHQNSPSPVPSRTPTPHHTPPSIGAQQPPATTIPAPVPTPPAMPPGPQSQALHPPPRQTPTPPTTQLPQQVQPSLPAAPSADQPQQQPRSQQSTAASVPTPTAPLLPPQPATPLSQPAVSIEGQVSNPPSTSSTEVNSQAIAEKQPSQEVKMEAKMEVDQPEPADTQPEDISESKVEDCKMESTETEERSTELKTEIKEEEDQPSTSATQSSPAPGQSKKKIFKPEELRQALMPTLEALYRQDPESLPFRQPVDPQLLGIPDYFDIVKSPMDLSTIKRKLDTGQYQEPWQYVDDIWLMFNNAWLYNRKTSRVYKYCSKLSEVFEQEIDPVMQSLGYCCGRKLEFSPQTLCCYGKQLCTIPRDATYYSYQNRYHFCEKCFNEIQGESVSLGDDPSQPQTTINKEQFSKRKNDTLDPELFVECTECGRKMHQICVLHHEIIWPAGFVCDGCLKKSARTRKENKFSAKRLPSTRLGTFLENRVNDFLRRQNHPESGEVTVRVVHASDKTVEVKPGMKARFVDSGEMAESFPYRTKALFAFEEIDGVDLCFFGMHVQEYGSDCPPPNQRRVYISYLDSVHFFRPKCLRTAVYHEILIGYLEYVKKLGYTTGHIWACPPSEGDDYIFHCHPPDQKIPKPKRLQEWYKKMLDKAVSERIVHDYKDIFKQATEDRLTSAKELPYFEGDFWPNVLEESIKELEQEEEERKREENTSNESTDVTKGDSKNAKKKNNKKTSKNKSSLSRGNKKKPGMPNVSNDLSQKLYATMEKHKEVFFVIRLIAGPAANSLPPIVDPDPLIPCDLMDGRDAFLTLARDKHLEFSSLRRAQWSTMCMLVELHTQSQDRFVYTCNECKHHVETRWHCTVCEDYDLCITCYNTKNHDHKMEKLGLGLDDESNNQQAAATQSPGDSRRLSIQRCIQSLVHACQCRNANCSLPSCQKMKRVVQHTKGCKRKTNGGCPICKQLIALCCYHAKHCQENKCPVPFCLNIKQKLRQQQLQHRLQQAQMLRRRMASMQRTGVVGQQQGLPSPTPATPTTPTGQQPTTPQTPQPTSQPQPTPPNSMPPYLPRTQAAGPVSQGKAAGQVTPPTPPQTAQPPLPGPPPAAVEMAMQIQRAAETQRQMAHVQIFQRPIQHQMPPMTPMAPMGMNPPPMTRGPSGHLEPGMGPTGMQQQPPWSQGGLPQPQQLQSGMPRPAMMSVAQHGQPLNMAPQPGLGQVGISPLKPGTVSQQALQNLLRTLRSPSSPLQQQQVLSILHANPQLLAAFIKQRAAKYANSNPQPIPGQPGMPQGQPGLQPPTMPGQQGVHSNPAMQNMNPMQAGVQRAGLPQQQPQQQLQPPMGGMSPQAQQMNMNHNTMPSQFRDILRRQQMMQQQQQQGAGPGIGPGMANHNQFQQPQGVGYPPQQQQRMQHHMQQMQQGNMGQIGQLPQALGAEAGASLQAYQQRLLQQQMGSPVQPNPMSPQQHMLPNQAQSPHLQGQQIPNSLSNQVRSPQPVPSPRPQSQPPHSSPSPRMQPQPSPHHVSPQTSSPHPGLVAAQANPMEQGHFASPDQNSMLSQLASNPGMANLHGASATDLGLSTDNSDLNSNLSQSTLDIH
Description: (§1) […] Whole cell lysates were collected using ice cold lysis buffer [300 mM NaCl, 50 mM Tris-HCl, pH 7.5, 0.5% Triton X-100, 1% sodium dodecyl sulfate (SDS), 1 mM dithiothreitol (DTT) (Invitrogen™), Roche®'s cOmplete™ protease inhibitor cocktail (1:000), 25 units/mL Benzonase®] and blotted at a protein concentration of 30 μg for EP300 and CBP and 10 μg for histone H3 and H3K27ac. Lysates were also blotted for bromodomain-containing protein 4 (BRD4). Lysates were resolved in NuPAGE™ 3-8% Tris-Acetate polyacrylamide gels (EA03785BOX, Invitrogen™) for EP300 and CBP and Bolt 4-12% Bis-Tris polyacrylamide gels (NW04125BOX, Invitrogen™) for H3 and H3K27ac. Afterwards, gels were transferred to nitrocellulose membranes (LC2001, Invitrogen™). […] Visualization was performed on an Odyssey infrared imaging system (LiCor® Biosciences).

CBP = CBP (Homo sapiens (Human), UniProt Q92793); test: Western blot for CBP degradation in Kelly NB cells; format: cell-based; conditions: 24 hours
CBP, sequence (Q92793 whole entry): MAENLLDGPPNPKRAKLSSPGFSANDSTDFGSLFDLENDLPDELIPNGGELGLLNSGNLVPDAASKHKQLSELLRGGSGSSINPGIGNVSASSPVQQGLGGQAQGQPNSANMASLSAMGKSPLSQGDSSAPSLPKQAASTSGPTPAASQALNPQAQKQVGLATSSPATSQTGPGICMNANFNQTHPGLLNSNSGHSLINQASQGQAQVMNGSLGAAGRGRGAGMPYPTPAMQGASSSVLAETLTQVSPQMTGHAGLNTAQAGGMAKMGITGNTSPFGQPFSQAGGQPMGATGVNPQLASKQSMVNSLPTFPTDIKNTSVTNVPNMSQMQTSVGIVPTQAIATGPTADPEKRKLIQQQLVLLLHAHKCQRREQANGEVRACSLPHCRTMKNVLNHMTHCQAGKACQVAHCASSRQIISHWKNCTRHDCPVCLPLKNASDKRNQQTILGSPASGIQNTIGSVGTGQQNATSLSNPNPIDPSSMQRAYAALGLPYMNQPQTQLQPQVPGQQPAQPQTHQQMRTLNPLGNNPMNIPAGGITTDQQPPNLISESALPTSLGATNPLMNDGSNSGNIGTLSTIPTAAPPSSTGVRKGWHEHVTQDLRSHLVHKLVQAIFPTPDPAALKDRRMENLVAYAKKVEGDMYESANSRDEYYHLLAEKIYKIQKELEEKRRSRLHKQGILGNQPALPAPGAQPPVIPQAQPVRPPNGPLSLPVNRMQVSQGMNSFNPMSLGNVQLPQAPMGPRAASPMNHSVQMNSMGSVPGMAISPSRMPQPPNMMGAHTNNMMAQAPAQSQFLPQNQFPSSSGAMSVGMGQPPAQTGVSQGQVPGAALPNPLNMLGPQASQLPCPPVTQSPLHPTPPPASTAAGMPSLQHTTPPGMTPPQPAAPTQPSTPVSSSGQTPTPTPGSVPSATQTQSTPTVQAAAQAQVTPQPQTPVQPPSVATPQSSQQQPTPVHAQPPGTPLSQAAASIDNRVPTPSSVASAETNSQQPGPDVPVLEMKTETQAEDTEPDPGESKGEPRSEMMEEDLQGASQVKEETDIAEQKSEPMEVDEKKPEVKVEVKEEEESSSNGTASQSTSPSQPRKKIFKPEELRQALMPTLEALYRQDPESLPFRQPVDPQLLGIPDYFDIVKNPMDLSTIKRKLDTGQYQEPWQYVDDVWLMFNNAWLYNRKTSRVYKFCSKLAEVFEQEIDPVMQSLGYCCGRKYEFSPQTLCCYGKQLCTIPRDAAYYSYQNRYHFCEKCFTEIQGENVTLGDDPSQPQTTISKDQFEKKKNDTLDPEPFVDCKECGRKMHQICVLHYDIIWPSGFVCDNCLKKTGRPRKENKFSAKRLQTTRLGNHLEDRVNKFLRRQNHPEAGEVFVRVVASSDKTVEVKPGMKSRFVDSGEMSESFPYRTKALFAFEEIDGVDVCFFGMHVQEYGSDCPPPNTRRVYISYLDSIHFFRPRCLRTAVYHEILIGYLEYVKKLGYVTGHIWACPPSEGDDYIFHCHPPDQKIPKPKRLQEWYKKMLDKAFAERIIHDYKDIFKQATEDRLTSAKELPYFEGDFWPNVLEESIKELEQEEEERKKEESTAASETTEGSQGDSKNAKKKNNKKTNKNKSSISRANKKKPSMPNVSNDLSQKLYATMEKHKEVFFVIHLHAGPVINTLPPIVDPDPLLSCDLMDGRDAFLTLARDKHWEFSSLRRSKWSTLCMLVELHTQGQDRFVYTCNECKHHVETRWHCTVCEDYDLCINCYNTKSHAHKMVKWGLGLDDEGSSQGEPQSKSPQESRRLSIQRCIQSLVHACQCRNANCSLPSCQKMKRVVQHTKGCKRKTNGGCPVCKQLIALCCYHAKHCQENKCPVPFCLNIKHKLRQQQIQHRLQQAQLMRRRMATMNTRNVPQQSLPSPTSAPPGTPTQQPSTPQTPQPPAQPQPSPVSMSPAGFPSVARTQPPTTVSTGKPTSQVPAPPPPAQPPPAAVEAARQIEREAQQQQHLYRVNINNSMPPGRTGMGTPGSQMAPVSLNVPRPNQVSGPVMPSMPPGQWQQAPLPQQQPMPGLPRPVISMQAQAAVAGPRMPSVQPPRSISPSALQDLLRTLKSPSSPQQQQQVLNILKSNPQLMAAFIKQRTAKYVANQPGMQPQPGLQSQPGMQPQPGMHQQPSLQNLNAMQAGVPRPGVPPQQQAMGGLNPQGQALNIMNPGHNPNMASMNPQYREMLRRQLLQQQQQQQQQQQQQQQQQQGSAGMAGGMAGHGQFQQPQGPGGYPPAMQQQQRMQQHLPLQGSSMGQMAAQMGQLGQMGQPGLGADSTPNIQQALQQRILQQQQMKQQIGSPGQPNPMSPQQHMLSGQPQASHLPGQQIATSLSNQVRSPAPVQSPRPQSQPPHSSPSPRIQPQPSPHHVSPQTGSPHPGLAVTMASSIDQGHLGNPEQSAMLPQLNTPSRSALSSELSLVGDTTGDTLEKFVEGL
Description: as §1

H3K27ac = test: Western blot for H3K27ac levels in Kelly NB cells; format: cell-based; conditions: 24 hours; for acetylation levels (immunoblot): at 1 μM; for H3K27ac / acetylation levels (immunoblot): concentration not given
Description: (§2) Kelly Neuroblastoma cells were seeded at 1,000,000 cells per well in 6 well plates and were treated in a dose-dependent manner for 24 hours. Whole cell lysates were collected using ice cold lysis buffer [300 mM NaCl, 50 mM Tris-HCl, pH 7.5, 0.5% Triton X-100, 1% sodium dodecyl sulfate (SDS), 1 mM dithiothreitol (DTT) (Invitrogen™), Roche®'s cOmplete™ protease inhibitor cocktail (1:000), 25 units/mL Benzonase®] and blotted at a protein concentration of 30 μg for EP300 and CBP and 10 μg for histone H3 and H3K27ac. Lysates were also blotted for bromodomain-containing protein 4 (BRD4). Lysates were resolved in NuPAGE™ 3-8% Tris-Acetate polyacrylamide gels (EA03785BOX, Invitrogen™) for EP300 and CBP and Bolt 4-12% Bis-Tris polyacrylamide gels (NW04125BOX, Invitrogen™) for H3 and H3K27ac. Afterwards, gels were transferred to nitrocellulose membranes (LC2001, Invitrogen™). […] Visualization was performed on an Odyssey infrared imaging system (LiCor® Biosciences).

[2] = molecular target: bromodomain-containing protein 4 (BRD4) (Homo sapiens (Human), UniProt O60885); test: Western blot for BRD4 levels in Kelly NB cells; format: cell-based; conditions: 24 h, at 1 μM
Description: Kelly Neuroblastoma cells were seeded at 1,000,000 cells per well in 6 well plates and were treated in a dose-dependent manner for 24 hours. Whole cell lysates were collected using ice cold lysis buffer [300 mM NaCl, 50 mM Tris-HCl, pH 7.5, 0.5% Triton X-100, 1% sodium dodecyl sulfate (SDS), 1 mM dithiothreitol (DTT) (Invitrogen™), Roche®'s cOmplete™ protease inhibitor cocktail (1:000), 25 units/mL Benzonase®] and blotted at a protein concentration of 30 μg for EP300 and CBP and 10 μg for histone H3 and H3K27ac. Lysates were also blotted for bromodomain-containing protein 4 (BRD4). Lysates were resolved in NuPAGE™ 3-8% Tris-Acetate polyacrylamide gels (EA03785BOX, Invitrogen™) for EP300 and CBP and Bolt 4-12% Bis-Tris polyacrylamide gels (NW04125BOX, Invitrogen™) for H3 and H3K27ac. Afterwards, gels were transferred to nitrocellulose membranes (LC2001, Invitrogen™). Primary and secondary antibodies used included anti-p300 at 1:500 dilution (ab10485, Abcam®), anti-CBP at 1:500 dilution (D6C5, Cell Signaling Technology®), anti-Actin at 1:5000 dilution (3700S, Cell Signaling Technology®), anti-H3 at 1:1000 dilution (4499S, Cell Signaling Technology®), anti-H3K27ac at 1:1000 dilution (ab4729, Abcam®), IRDye®800 goat anti-rabbit at 1:5000 dilution (926-32211, LiCor® Biosciences) and IRDye®680 goat anti-mouse at 1:5000 dilution (926-68070, LiCor®). Visualization was performed on an Odyssey infrared imaging system (LiCor® Biosciences).

CBP bromodomain = CBP bromodomain (Homo sapiens (Human), UniProt Q92793); test: CBP (Bromodomain) AlphaScreen Assay; format: binding; conditions: FIG. 6
CBP bromodomain, sequence (Q92793 1085-1192): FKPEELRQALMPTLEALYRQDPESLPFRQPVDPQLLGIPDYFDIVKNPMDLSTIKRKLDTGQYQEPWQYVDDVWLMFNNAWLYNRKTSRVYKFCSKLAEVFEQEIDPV
Description: Assays were performed with minimal modifications from the manufacturer's protocol (PerkinElmer®, USA). All reagents were diluted in 50 mM 4-(2-hydroxyethyl)-1-piperazineethanesulfonic acid (HEPES), 150 mM NaCl, 0.1% w/v bovine serum albumin (BSA), 0.01% w/v Tween® 20, pH 7.5 and allowed to equilibrate to room temperature prior to addition to plates. After addition of AlphaScreen® acceptor beads to master solutions, all subsequent steps were performed under low light conditions. […] Plates were spun down at 150×g, 100 nL of compound in dimethyl sulfoxide (DMSO) from stock plates were added by pin transfer using a Janus® Workstation (PerkinElmer®, USA). The streptavidin-coated donor beads (10 ng/ml final) were added as with previous the solution in a 2×10 μL volume. Following this addition, plates were sealed with foil to prevent light exposure and evaporation. The plates were spun down again at 150×g.

[3] = tested on: Kelly Neuroblastoma cells; test: Western blot experiment, cytotoxicity observed in Kelly NB cells; format: cell-based; conditions: 24 hours
Description: as §2

[4] = Kelly Neuroblastoma cells, class symbols, read-out: IC50 of inventive bispecific compounds
[5] = Kelly Neuroblastoma cells, read-out: IC50

Row | Structure (SMILES) | IC50 [1, 4] [nM] | IC50 [1, 5] [nM] | acetylation levels (immunoblot) (H3K27ac) | BRD4 degradation (immunoblot) [2] | P300 degradation (immunoblot) (EP300; at 1 μM) | CBP degradation (immunoblot) (CBP; at 1 μM) | further results
1 | Cc1noc(C)c1-c1ccc2nc(-c3ccc(N4CCN(C(=O)CCOCCOCCOCCOCCOCCOCCNc5cccc6c5C(=O)N(C5CCC(=O)NC5=O)C6=O)CC4)cc3)c(NC3CCCCC3)n2c1 (stereo not shown) [Compound 3, 4-((21-(4-(4-(3-(cyclohexylamino)-6-(3,5-dimethylisoxazol-4-yl)imidazo[1,2-a]pyridin-2-yl)phenyl)piperazin-1-yl)-21-oxo-3,6,9,12,15,18-hexaoxahenicosyl)amino)-2-(2,6-dioxopiperidin-3-yl)isoindoline-1,3-dione] | 100 to 1000 | 706 | – | – | – | – | IC50 values (range in words) [1]: micromolar and sub-micromolar range; P300 degradation (immunoblot) (EP300; at 10 μM): some degradation; CBP degradation (immunoblot) (CBP; at 10 μM): some degradation
2 | Cc1noc(C)c1-c1ccn2c(NC3CCCCC3)c(CCc3ccc(NC(=O)COc4cccc5c4C(=O)N(C4CCC(=O)NC4=O)C5=O)cc3)nc2c1 (stereo not shown) [Compound 12, N-(4-(2-(3-(cyclohexylamino)-7-(3,5-dimethylisoxazol-4-yl)imidazo[1,2-a]pyridin-2-yl)ethyl)phenyl)-2-((2-(2,6-dioxopiperidin-3-yl)-1,3-dioxoisoindolin-4-yl)oxy)acetamide] | 1000 to 10000 | – | reduction | observed | noticeable degradation | – | –
3 | Cc1noc(C)c1-c1ccn2c(NC3CCCCC3)c(CCc3ccc(NC(=O)CCCCCNc4cccc5c4C(=O)N(C4CCC(=O)NC4=O)C5=O)cc3)nc2c1 (stereo not shown) [Compound 11, N-(4-(2-(3-(cyclohexylamino)-7-(3,5-dimethylisoxazol-4-yl)imidazo[1,2-a]pyridin-2-yl)ethyl)phenyl)-6-((2-(2,6-dioxopiperidin-3-yl)-1,3-dioxoisoindolin-4-yl)amino)hexanamide] | 100 to 1000 | – | reduction | observed | noticeable degradation | noticeable degradation | –
4 | Cc1noc(C)c1-c1ccc2nc(-c3ccc(N4CCN(C(=O)CCOCCOCCOCCNc5cccc6c5C(=O)N(C5CCC(=O)NC5=O)C6=O)CC4)cc3)c(NC3CCCCC3)n2c1 (stereo not shown) [Compound 2, 4-((2-(2-(2-(3-(4-(4-(3-(cyclohexylamino)-6-(3,5-dimethylisoxazol-4-yl)imidazo[1,2-a]pyridin-2-yl)phenyl)piperazin-1-yl)-3-oxopropoxy)ethoxy)ethoxy)ethyl)amino)-2-(2,6-dioxopiperidin-3-yl)isoindoline-1,3-dione] | < 100 | 91.8 ± 6.58 | – | – | – | – | IC50 potency relative to A485 ([1]; Kelly Neuroblastoma cells, more potent than A485): about 10 fold; H3K27ac / acetylation levels (immunoblot) (H3K27ac): evident reduction; bound to CBP (bromodomain), range (CBP bromodomain): ~10 µM; EP300 degradation (immunoblot) (EP300; concentration not given): potent degrader; CBP degradation (immunoblot) (CBP; concentration not given): potent degrader
5 | Cc1noc(C)c1-c1ccc2c(c1)nc(CCc1ccc(NC(=O)CCOCCOCCOCCNc3cccc4c3C(=O)N(C3CCC(=O)NC3=O)C4=O)cc1)n2CCN1CCOCC1 (stereo not shown) [Compound 22, N-(4-(2-(5-(3,5-dimethylisoxazol-4-yl)-1-(2-morpholinoethyl)-1H-benzo[d]imidazol-2-yl)ethyl)phenyl)-3-(2-(2-(2-((2-(2,6-dioxopiperidin-3-yl)-1,3-dioxoisoindolin-4-yl)amino)ethoxy)ethoxy)ethoxy)propanamide] | > 10000 | – | – | – | – | – | –
6 | Cc1ncsc1-c1ccc(CNC(=O)[C@H]2C[C@H](O)CN2C(=O)[C@H](NC(=O)COCCOCCOCCNC(=O)CCC(=O)Nc2ccc(CCc3nc4cc(-c5c(C)noc5C)ccn4c3NC3CCCCC3)cc2)C(C)(C)C)cc1 [Compound 15, N1-(4-(2-(3-(cyclohexylamino)-7-(3,5-dimethylisoxazol-4-yl)imidazo[1,2-a]pyridin-2-yl)ethyl)phenyl)-N4-((R)-13-((2R,4S)-4-hydroxy-2-((4-(4-methylthiazol-5-yl)benzyl)carbamoyl)pyrrolidine-1-carbonyl)-14,14-dimethyl-11-oxo-3,6,9-trioxa-12-azapentadecyl)succinamide] | > 10000 | – | – | – | – | – | –
7 | Cc1noc(C)c1-c1ccn2c(NC3CCCCC3)c(CCc3ccc(NC(=O)CCOCCOCCOCCNc4cccc5c4C(=O)N(C4CCC(=O)NC4=O)C5=O)cc3)nc2c1 (stereo not shown) [Compound 8, N-(4-(2-(3-(cyclohexylamino)-7-(3,5-dimethylisoxazol-4-yl)imidazo[1,2-a]pyridin-2-yl)ethyl)phenyl)-3-(2-(2-(2-((2-(2,6-dioxopiperidin-3-yl)-1,3-dioxoisoindolin-4-yl)amino)ethoxy)ethoxy)ethoxy)propanamide] | 100 to 1000 | – | reduction | observed | noticeable degradation | noticeable degradation | –
8 | Cc1noc(C)c1-c1ccn2c(NCc3ccccc3)c(-c3ccc(N4CCN(C(=O)COc5cccc6c5C(=O)N(C5CCC(=O)NC5=O)C6=O)CC4)cc3)nc2c1 (stereo not shown) [Compound 7, 4-(2-(4-(4-(3-(benzylamino)-7-(3,5-dimethylisoxazol-4-yl)imidazo[1,2-a]pyridin-2-yl)phenyl)piperazin-1-yl)-2-oxoethoxy)-2-(2,6-dioxopiperidin-3-yl)isoindoline-1,3-dione] | < 100 | 33.1 | – | – | noticeable degradation | noticeable degradation | IC50 values (range in words) [1]: micromolar and sub-micromolar range; H3K27ac / acetylation levels (immunoblot) (H3K27ac): slight reduction
9 | Cc1noc(C)c1-c1ccc2nc(-c3ccc(N4CCNCC4)cc3)c(NC3CCCCC3)n2c1.Cl [Int-2] | – | – | – | – | – | – | general cytotoxicity [3]: general cytotoxicity; bound to CBP (bromodomain), range (CBP bromodomain): ~10 µM
10 | COc1ccc(CCc2nc3cc(-c4c(C)noc4C)ccc3n2C[C@H](C)N2CCN(C(=O)CCCCCCCCCNc3ccc4c(c3)C(=O)N(C3CCC(=O)NC3=O)C4=O)CC2)cc1Cl (stereo partly drawn) [Compound 20, 5-((10-(4-((S)-1-(2-(3-chloro-4-methoxyphenethyl)-5-(3,5-dimethylisoxazol-4-yl)-1H-benzo[d]imidazol-1-yl)propan-2-yl)piperazin-1-yl)-10-oxodecyl)amino)-2-(2,6-dioxopiperidin-3-yl)isoindoline-1,3-dione] | > 10000 | – | – | – | – | – | –
